Tests used:
CD73 [1] = biological target: T1, CD73 (Homo sapiens (Human), UniProt P21589); assay type: biochemical; details: 1 mM NaH2PO4 in enzyme buffer, CD73 0.3 nM, AMP 15 uM
CD73 [2] = biological target: T1, CD73; assay: MDA-MB-231 Cell Based CD73 Activity Assay (DMEM); details: MDA-MB-231-GFP cells, DMEM medium with 10% human plasma, 200 uM AMP

T1 sequence (P21589 27-574): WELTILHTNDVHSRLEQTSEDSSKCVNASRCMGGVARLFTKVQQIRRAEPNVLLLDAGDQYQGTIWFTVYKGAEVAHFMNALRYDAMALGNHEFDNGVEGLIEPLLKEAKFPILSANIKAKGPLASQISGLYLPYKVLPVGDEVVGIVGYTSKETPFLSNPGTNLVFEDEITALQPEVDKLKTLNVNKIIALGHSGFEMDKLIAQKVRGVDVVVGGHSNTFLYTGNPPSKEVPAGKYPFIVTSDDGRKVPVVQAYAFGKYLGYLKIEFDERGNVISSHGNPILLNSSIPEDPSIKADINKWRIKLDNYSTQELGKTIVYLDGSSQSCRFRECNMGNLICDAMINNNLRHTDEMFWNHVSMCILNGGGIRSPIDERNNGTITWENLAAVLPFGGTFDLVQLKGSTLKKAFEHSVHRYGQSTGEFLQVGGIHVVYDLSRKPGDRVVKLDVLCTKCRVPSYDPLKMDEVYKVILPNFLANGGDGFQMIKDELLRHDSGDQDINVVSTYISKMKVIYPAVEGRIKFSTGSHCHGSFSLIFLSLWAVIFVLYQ

Structure (SMILES)	IC50 (CD73 [1]) [µM]	EC50 (CD73 [2]) [µM]
O=c1[nH]cc(-c2cc(NC[C@@H](F)c3ccccc3)c3nccn3n2)c(=O)[nH]1 [Example 494, (S)-5-(8-((2-fluoro-2-phenylethyl)amino)imidazo[1,2-b]pyridazin-6-yl)pyrimidine-2,4(1H,3H)-dione]	0.102	0.291
O=c1[nH]cc(-c2cc(NCCc3c[nH]c4ccc(Cl)cc34)c3nccn3n2)c(=O)[nH]1 [Example 495, 5-(8-((2-(5-chloro-1H-indol-3-yl)ethyl)amino)imidazo[1,2-b]pyridazin-6-yl)pyrimidine-2,4(1H,3H)-dione]	> 0.25	0.748
O=c1[nH]cc(-c2cc(NCCc3ccc(F)cc3)c3nccn3n2)c(=O)[nH]1 [Example 496, 5-(8-((4-fluorophenethyl)amino)imidazo[1,2-b]pyridazin-6-yl)pyrimidine-2,4(1H,3H)-dione]	0.064	0.154
O=c1[nH]cc(-c2cc(NCCc3ccc(Cl)cc3)c3nccn3n2)c(=O)[nH]1 [Example 497, 5-(8-((4-chlorophenethyl)amino)imidazo[1,2-b]pyridazin-6-yl)pyrimidine-2,4(1H,3H)-dione]	0.0645	0.569
O=c1[nH]cc(-c2cc(NCC(F)(F)c3ccccc3)c3nccn3n2)c(=O)[nH]1 [Example 498, 5-(8-((2,2-difluoro-2-phenylethyl)amino)imidazo[1,2-b]pyridazin-6-yl)pyrimidine-2,4(1H,3H)-dione]	0.0507	0.26
C[C@H](CNc1cc(-c2c[nH]c(=O)[nH]c2=O)nn2ccnc12)c1ccccc1 [Example 499, (S)-5-(8-((2-phenylpropyl)amino)imidazo[1,2-b]pyridazin-6-yl)pyrimidine-2,4(1H,3H)-dione]	0.163	0.501
C[C@@H](CNc1cc(-c2c[nH]c(=O)[nH]c2=O)nn2ccnc12)c1ccccc1 [Example 500, (R)-5-(8-((2-phenylpropyl)amino)imidazo[1,2-b]pyridazin-6-yl)pyrimidine-2,4(1H,3H)-dione]	0.108	0.457
O=c1[nH]cc(-c2cc(N3CC(F)(F)C4(CNC4)C3)c3nccn3n2)c(=O)[nH]1 [Example 501, 5-(8-(8,8-difluoro-2,6-diazaspiro[3.4]octan-6-yl)imidazo[1,2-b]pyridazin-6-yl)pyrimidine-2,4(1H,3H)-dione]	0.0209	0.108
O=c1[nH]cc(-c2cc(N3CC(F)(F)C4(CN(Cc5cccc(F)c5)C4)C3)c3nccn3n2)c(=O)[nH]1 [Example 502, 5-(8-(8,8-difluoro-2-(3-fluorobenzyl)-2,6-diazaspiro[3.4]octan-6-yl)imidazo[1,2-b]pyridazin-6-yl)pyrimidine-2,4(1H,3H)-dione]	0.00906	0.0444
CC(=O)N1CC2(C1)CN(c1cc(-c3c[nH]c(=O)[nH]c3=O)nn3ccnc13)CC2(F)F [Example 503, 5-(8-(2-acetyl-8,8-difluoro-2,6-diazaspiro[3.4]octan-6-yl)imidazo[1,2-b]pyridazin-6-yl)pyrimidine-2,4(1H,3H)-dione]	0.00522	0.00547
COC(=O)N1CC2(C1)CN(c1cc(-c3c[nH]c(=O)[nH]c3=O)nn3ccnc13)CC2(F)F [Example 504, Methyl 6-(6-(2,4-dioxo-1,2,3,4-tetrahydropyrimidin-5-yl)imidazo[1,2-b]pyridazin-8-yl)-8,8-difluoro-2,6-diazaspiro[3.4]octane-2-carboxylate]	0.00678	0.00562
O=C(OCc1ccccc1)N1CC2(C1)CN(c1cc(-c3c[nH]c(=O)[nH]c3=O)nn3ccnc13)CC2(F)F [Example 505, benzyl 6-(6-(2,4-dioxo-1,2,3,4-tetrahydropyrimidin-5-yl)imidazo[1,2-b]pyridazin-8-yl)-8,8-difluoro-2,6-diazaspiro[3.4]octane-2-carboxylate]	0.00561	0.0101
O=C(OCC(F)(F)F)N1CC2(C1)CN(c1cc(-c3c[nH]c(=O)[nH]c3=O)nn3ccnc13)CC2(F)F [Example 506, 2,2,2-trifluoroethyl 6-(6-(2,4-dioxo-1,2,3,4-tetrahydropyrimidin-5-yl)imidazo[1,2-b]pyridazin-8-yl)-8,8-difluoro-2,6-diazaspiro[3.4]octane-2-carboxylate]	0.00882	0.00867
O=c1[nH]cc(-c2cc(N3CC(F)(F)C4(CN(CC(F)F)C4)C3)c3nccn3n2)c(=O)[nH]1 [Example 507, 5-(8-(2-(2,2-difluoroethyl)-8,8-difluoro-2,6-diazaspiro[3.4]octan-6-yl)imidazo[1,2-b]pyridazin-6-yl)pyrimidine-2,4(1H,3H)-dione]	0.00983	0.0197
O=c1[nH]cc(-c2cc(N3CC(F)(F)C4(CN(CC(F)(F)F)C4)C3)c3nccn3n2)c(=O)[nH]1 [Example 508, 5-(8-(8,8-difluoro-2-(2,2,2-trifluoroethyl)-2,6-diazaspiro[3.4]octan-6-yl)imidazo[1,2-b]pyridazin-6-yl)pyrimidine-2,4(1H,3H)-dione]	0.015	0.029
O=c1[nH]cc(-c2cc(-c3cnn(C(F)F)c3)c3nccn3n2)c(=O)[nH]1 [Example 509, 5-(8-(1-(difluoromethyl)-1H-pyrazol-4-yl)imidazo[1,2-b]pyridazin-6-yl)pyrimidine-2,4(1H,3H)-dione]	0.0495	0.0901
COCCn1cc(-c2cc(-c3c[nH]c(=O)[nH]c3=O)nn3ccnc23)cn1 [Example 510, 5-(8-(1-(2-methoxyethyl)-1H-pyrazol-4-yl)imidazo[1,2-b]pyridazin-6-yl)pyrimidine-2,4(1H,3H)-dione]	0.246	0.382
O=c1[nH]cc(-c2cc(-c3cnn(CCN4CCOCC4)c3)c3nccn3n2)c(=O)[nH]1 [Example 511, 5-(8-(1-(2-morpholinoethyl)-1H-pyrazol-4-yl)imidazo[1,2-b]pyridazin-6-yl)pyrimidine-2,4(1H,3H)-dione]	> 0.25	0.431
Cn1ccc(-c2cc(-c3c[nH]c(=O)[nH]c3=O)nn3ccnc23)n1 [Example 512, 5-(8-(1-methyl-1H-pyrazol-3-yl)imidazo[1,2-b]pyridazin-6-yl)pyrimidine-2,4(1H,3H)-dione]	> 0.25	1.14
CC1(C)CC(=O)N(c2cc(-c3c[nH]c(=O)[nH]c3=O)nn3ccnc23)C1 [Example 513, 5-(8-(4,4-dimethyl-2-oxopyrrolidin-1-yl)imidazo[1,2-b]pyridazin-6-yl)pyrimidine-2,4(1H,3H)-dione]	> 0.25	0.934
CC1(C)CN(c2cc(-c3c[nH]c(=O)[nH]c3=O)nn3ccnc23)C(=O)O1 [Example 514, 5-(8-(5,5-dimethyl-2-oxooxazolidin-3-yl)imidazo[1,2-b]pyridazin-6-yl)pyrimidine-2,4(1H,3H)-dione]	0.212	0.269
CC1(C)CN(c2cc(-c3c[nH]c(=O)[nH]c3=O)nn3c(Cl)c(Cl)nc23)CC1(F)F [Example 515, 5-(2,3-dichloro-8-(3,3-difluoro-4,4-dimethylpyrrolidin1-yl)imidazo[1,2-b]pyridazin-6-yl)pyrimidine-2,4(1H,3H)-dione]	0.00172	0.228
C[C@H]1CN(c2cc(-c3c[nH]c(=O)[nH]c3=O)nn3ccnc23)CC1(F)F [Example 516, (S)-5-(8-(3,3-difluoro-4-methylpyrrolidin-1-yl)imidazo[1,2-b]pyridazin-6-yl)pyrimidine-2,4(1H,3H)-dione]	0.00317	0.0128
